Results: paper PMC8588536, “Iridal-Type Triterpenoids Displaying Human Neutrophil Elastase Inhibition and Anti-Inflammatory Effects from Belamcanda chinensis” (Molecules, 2021)

System: NF-κB p65 in LPS-stimulated RAW264.7 cells
Test: NF-κB p65 nuclear translocation, Western blot of nuclear and cytoplasmic fractions
Assay type: cell-based, mouse
Details: 1 and 3 µg/mL, n = 3, p < 0.05
Procedure: RAW264.7 cells were homogenized in a hypotonic lysis buffer and centrifuged at 142× g for 5 min at 4 °C. The resulting pellets and supernatants were used for the isolation of nuclear and cytosoplasmic fraction, respectively. The pellets were incubated on ice for 5 min with a nuclear isolation buffer and were spun at 142× g using Eppendorf centrifuge 5424 R at 4 °C for 5 min. The resulting pellets were incubated on ice for 30 min with 2% Triton nuclear isolation buffer and were spun at 12,448× g at 4 °C for 15 min. For the cytosolic fraction, the resulting supernatants in the hypotonic lysis buffer were transferred to a new 1.5 mL tube and spun at 15,401× g for 15 min at 4 °C. The resulting supernatants were centrifuged at 100,000× g at 4 °C for 60 min in an ultracentrifuge (TLA 100.3; Optima MAX-XP, Beckman Coulter, Inc., Brea, CA, USA). The proteins of nuclear and cytosolic fractions were separated on 8% SDS-PAGE gel and blotted onto polyvinylidene difluoride membranes. Equal amounts of 35 µg were analyzed by Western blotting. Briefly, the membranes were blocked with 5% fat-free dry milk and then incubated with the anti-NF-κB p65 polyclonal antibody (1:1000 dilution; Cell Signaling Technology), and anti-β-actin monoclonal antibodies (1:5000 dilution). […]

## CC(C)=CCCC(C)=CCC(O)C(C)=CCCC1(C)C(CCCO)C(=C(C)C=O)CCC1(C)O (stereo not shown) [Compound 2, iridobelamal A]
  nuclear translocation of p65 protein (Western blot): inhibited
